Laboratory results reported in US9186318B2, “Quinolyl-containing hydroxamic acid compound and preparation method thereof, and pharmaceutical composition containing this compound and use thereof” (Beijing Konruns Pharmaceutical Co., Ltd, priority 2011, dated 2015).

Tests used:
[1] = system: GTL-16 gastric cancer cells; assay: Anti-tumor experiment in xenograft nude mice; format: in vivo, BALB/c-nu/nu mice; details: GTL-16 xenograft nude mice, 75 mg/kg oral gavage once a day; for Tumor Growth Inhibition (TGI): 14 days; for average tumor volume: after 14 days, mean±SD, n=6
Excerpt: In this example, N1′-[3-fluoro-4-[[7-[[1-[2-(hydroxyamino)-2-oxoethyl]-4-piperidyl]methoxy]-6-methoxy-4-quinolyl]oxy]phenyl]-N1-(4-fluorophenyl)cyclopropane-1,1-dicarboxamide prepared in Example 1 was used to conduct anti-tumor experiment in xenograft nude mice animal models of human gastric cancer. The method and results of the experiment were as follows.
4 to 5-week-old SPF level female BALB/c-nu/nu mice with body weight of 12 g to 16 g were purchased from Beijing Vital River Laboratory Animal Technology Co., Ltd., with the production license number: SCXK (Beijing) 2006. GTL-16 gastric cancer cells were purchased from Shanghai Institutes for Biological Sciences Cell Resource Center. RPM 1-1640 cell culture media, fetal bovine serum (FBS) and trypsin digestion solution were purchased from Gibco. Various antibiotics were purchased from Sigma.
(§1) GTL-16 gastric cancer cells were firstly cultured: GTL-16 cell lines were inoculated in RPM 1-1640 culture medium contain 10% FBS, 100 U/ml penicillin, 100 U/ml streptomycin and cultured under the condition of 37° C., 5% CO2 and 100% humidity in a carbon dioxide incubator. The logarithmic growth phase reached upon 24 h, and the cells completely covered the bottom of the culture flask at approximately 48 h after inoculation. Those with 80% of GTL-16 cells covering the bottom of the culture flask were digested and centrifuged at 1000 r/min for 5 min. The cells were diluted to 2×10^7/ml, and implanted subcutaneously in the right anterior axillary of the nude mice at 0.1 mL per mouse. Starting from 12 days after inoculation of tumor cells, the weight of the tumor-bearing nude mice and the size of tumors were measured, and the mice with tumor sizes ranging from 150-200 mm^3 were randomly divided into vehicle control group (Vehicle was 0.25% methanesulfonic acid) and treatment group in which the mice were treated with N1′-[3-fluoro-4-[[7-[[1-[2-(hydroxyamino)-2-oxoethyl]-4-piperidyl]methoxy]-6-methoxy-4-quinolyl]oxy]phenyl]-N1-(4-fluorophenyl)cyclopropane-1,1-dicarboxamide prepared in Example 1 with 6 mice each group. Thereafter, the nude mice were weighed daily and the oral administrations were performed at 0.1 mL/10 g body-weight through oral gavage method (75 mg/kg, once a day). The tumor size of each animal was measured every 2 days. 14 days later, the tumor-bearing mice were sacrificed by cervical dislocation and the tumors were removed and weighed. The calculation method of Tumor Growth Inhibition (TGI) was as follows: the experimental data were represented by mean±SD; TGI=[(Vvehicle group−Vtreatment group)÷Vvehicle group]×100%, wherein Vvehicle group represented the mice tumor volume of the vehicle group and Vtreatment group represented the mice tumor volume of the treatment group. […]

[2] = Body weight of mice in the anti-tumor experiment; format: in vivo, BALB/c-nu/nu mice; details: treatment group, 75 mg/kg oral once a day; after 14 days treatment
Procedure: as §1, with “Thereafter, the nude mice were weighed daily and the oral administrations were performed at 0.1 mL/10 g body-weight through oral gavage method (75 mg/kg, once a day).” left out, “days.” for “days. 14 days later, the tumor-bearing mice were sacrificed by cervical dislocation and the tumors were removed and weighed. The calculation method of Tumor Growth Inhibition (TGI) was as follows: the experimental data were represented by mean±SD; TGI=[(Vvehicle group−Vtreatment group)÷Vvehicle group]×100%, wherein Vvehicle group represented the mice tumor volume of the vehicle group and Vtreatment group represented the mice tumor volume of the treatment group.”

Structure (SMILES)	Tumor Growth Inhibition (TGI) [1] [%]	average tumor volume [1] [mm^3]	weight variation of mice [2] [%]
COc1cc2c(Oc3ccc(NC(=O)C4(C(=O)Nc5ccc(F)cc5)CC4)cc3F)ccnc2cc1OCCCC(=O)NO [Example 9, N1′-[3-fluoro-4-[[7-[4-(hydroxyamino)-4-oxobutoxy]-6-methoxy-4-quinolyl]oxy]phenyl]-N1-(4-fluorophenyl)cyclopropane-1,1-dicarboxamide]	87	241.1±131.4	
COc1cc2c(Oc3ccc(NC(=O)C4(C(=O)Nc5ccc(F)cc5)CC4)cc3F)ccnc2cc1OCC1CCN(CC(=O)NO)CC1 [Example 1, N1′-[3-fluoro-4-[[7-[[1-[2-(hydroxyamino)-2-oxoethyl]-4-piperidyl]methoxy]-6-methoxy-4-quinolyl]oxy]phenyl]-N1-(4-fluorophenyl)cyclopropane-1,1-dicarboxamide]	65	630.9±354.6	< 10
